Experimental data taken from patent US10099045B2, “Administration of antibiotics and therapeutic agents” (priority 2008, dated 2018).
Where “and” joins values, the source holds several entries; their conditions need not be identical. Equal values may be shown once. Read-outs that look alike come from different tables or passages of the source.

Legend:
[1] = intravenous bolus 1 g, cited from earlier work
[2] = tested on: methicillin-sensitive Staphylococcus aureus (MSSA), Klebsiella pneumoniae, Escherichia coli, Streptococcus spp.; conditions: 360 MSSA, 204 K. pneumoniae, 314 E. coli, 30 Streptococcus spp. isolates; cited from earlier work
MRSA 150 = assay: MIC of Cefazolin, broth dilution method; assay type: cell-based, Staphylococcus aureus
Excerpt: (§1) Accordingly, further tests of Cephazolin with a range of different MRSA strains at concentrations well above the dose achievable by IV delivery were made to understand these finding. The Minimum inhibitory concentration (MIC) of Cephazolin with respect to these various strains is reported below in Table 1 in units are in .mu·g/ml of Cefazolin using the broth dilution method. MIC is the lowest concentration of an antimicrobial that will inhibit the visible growth of a microorganism after overnight incubation. STA 29213 is the conventional strain of S. aureus, showing normal sensitivity to Cefazolin with an MIC of 0.5.mu·g/ml.
(§2) The colony count in the last column is just a quality control measure to insure the correct innooculum.

MRSA 116 = assay: MIC of Cefazolin, broth dilution method; assay type: cell-based, Staphylococcus aureus
Excerpt: as §1, §2

Mu 3 MRSA hVISA = assay: MIC of Cefazolin, broth dilution method; assay type: cell-based, Staphylococcus aureus; conditions: for MIC/Cefazolin: single determinations
Excerpt: as §1, §2

MRSA 144 = assay: MIC of Cefazolin, broth dilution method; assay type: cell-based, Staphylococcus aureus
Excerpt: as §1, §2

MRSA 145 = assay: MIC of Cefazolin, broth dilution method; assay type: cell-based, Staphylococcus aureus
Excerpt: as §1, §2

MRSA 146 = assay: MIC of Cefazolin, broth dilution method; assay type: cell-based, Staphylococcus aureus
Excerpt: as §1, §2

MRSA 143 = assay: MIC of Cefazolin, broth dilution method; assay type: cell-based, Staphylococcus aureus
Excerpt: as §1, §2

MRSA 152 = assay: MIC of Cefazolin, broth dilution method; assay type: cell-based, Staphylococcus aureus
Excerpt: as §1, §2

MRSA 147 = assay: MIC of Cefazolin, broth dilution method; assay type: cell-based, Staphylococcus aureus
Excerpt: as §1, §2

STA 25923 MSSA = assay: MIC of Cefazolin, broth dilution method; assay type: cell-based, Staphylococcus aureus
Excerpt: as §1, §2

MRSA 148 = assay: MIC of Cefazolin, broth dilution method; assay type: cell-based, Staphylococcus aureus
Excerpt: as §1, §2

MRSA 56 (494) = assay: MIC of Cefazolin, broth dilution method; assay type: cell-based, Staphylococcus aureus
Excerpt: as §1, §2

MRSA 151 = assay: MIC of Cefazolin, broth dilution method; assay type: cell-based, Staphylococcus aureus
Excerpt: as §1, §2

MRSA 149 = assay: MIC of Cefazolin, broth dilution method; assay type: cell-based, Staphylococcus aureus
Excerpt: as §1, §2

Mu 50 MRSA VISA = assay: MIC of Cefazolin, broth dilution method; assay type: cell-based, Staphylococcus aureus
Excerpt: as §1, §2

MRSA 142 ATCC 33591 MRSA = assay: MIC of Cefazolin, broth dilution method; assay type: cell-based, Staphylococcus aureus
Excerpt: as §1, §2

STA 29213 MSSA = assay: MIC of Cefazolin, broth dilution method; assay type: cell-based, S. aureus; conditions: for MIC/Cefazolin: single determinations
Excerpt: as §1, §2

[3] = Adipose tissue and serum concentration after subcutaneous infusion with transcutaneous ultrasound, elective abdominoplasty; conditions: for blood serum concentration: 1 gm subcutaneous plus ultrasound, when surgery was completed about an hour later
Method: A prophylactic dose of the antibiotic Cafazolin was delivered to a patient by the above procedure prior to elective abdominoplasty using the Silberg Tissue Preparation Systems TM Model ME 800 (9801427) Mettler Surgical, Anaheim, Calif.). About 250 cc of prewarmed saline containing 1 gm of Cefazolin was injected under a surgical incision line 201 that was about 5 cm long. Small sample of adipose tissue where taken during the surgical procedure to determine if the Cefazolin would remain above desired concentration reported by Ohge et al., and thus remain sufficiently high through the procedure. Further, blood serum samples were taken during the procedure to determine the potential for a longer term systemic delivery.

[4] = Staphylococcus aureus, read-out: Median MIC

## Cc1nnc(SCC2=C(C(=O)O)N3C(=O)[C@@H](NC(=O)Cn4cnnn4)[C@H]3SC2)s1 [Cefazolin]
[1]; after about 4 hours
  serum concentration: about 10 μg/ml
[1]; after slightly more than 2 hours of surgery
  mean tissue concentration: below 4 μg/ml
[1]; an hour after surgery commenced
  mean tissue concentration: about 10 μg/ml
[1]; an hour after surgery commenced, listed as antibiotic
  mean tissue concentration: 10 µg/mL
[1]; end of the same time period (slightly more than 2 hours)
  serum concentration: ~40000 ng/mL
[1]; start of the same time period (an hour after surgery commenced)
  serum concentration: about 80 μg/ml
[2]
  tissue level to achieve minimum inhibitory concentrations for 80% (MIC80) of four bacterial species: about 4 μg/ml
MRSA 150; MRSA 150, single determinations
  MIC/Cefazolin: 512 µg/mL
MRSA 150; Staphylococcus aureus, MRSA 150, read-out: Median MIC
  MIC: 512 µg/mL
MRSA 116; MRSA 116, single determinations
  MIC/Cefazolin: 512 µg/mL and 256 µg/mL
MRSA 116; Staphylococcus aureus, MRSA 116, read-out: Median MIC
  MIC: 256 µg/mL
Mu 3 MRSA hVISA; MU 3, most resistant strain
  MIC relative to the dose required for normal strains: about 50 times
Mu 3 MRSA hVISA; Mu 3 MRSA hVISA
  MIC/Cefazolin: 512 µg/mL
Mu 3 MRSA hVISA; Mu 3 MRSA hVISA, listed as antibiotic
  MIC/Cefazolin: about 512 μg/ml
Mu 3 MRSA hVISA; Staphylococcus aureus, Mu 3 MRSA hVISA, read-out: Median MIC
  MIC: 512 µg/mL
MRSA 144; MRSA 144, single determinations
  MIC/Cefazolin: 64 µg/mL and 128 µg/mL
MRSA 144; Staphylococcus aureus, MRSA 144, read-out: Median MIC
  MIC: 64 µg/mL
MRSA 145; MRSA 145, single determinations
  MIC/Cefazolin: 128 µg/mL
MRSA 145; Staphylococcus aureus, MRSA 145, read-out: Median MIC
  MIC: 128 µg/mL
MRSA 146; MRSA 146, single determinations
  MIC/Cefazolin: 64 µg/mL and 128 µg/mL
MRSA 146; Staphylococcus aureus, MRSA 146, read-out: Median MIC
  MIC: 64 µg/mL
MRSA 143; MRSA 143, single determinations
  MIC/Cefazolin: 64 µg/mL and 128 µg/mL
MRSA 143; Staphylococcus aureus, MRSA 143, read-out: Median MIC
  MIC: 128 µg/mL
MRSA 152; MRSA 152, single determinations
  MIC/Cefazolin: 4 µg/mL and 8 µg/mL
MRSA 152; Staphylococcus aureus, MRSA 152, read-out: Median MIC
  MIC: 4 µg/mL
MRSA 147; MRSA 147, single determinations
  MIC/Cefazolin: 64 µg/mL
MRSA 147; Staphylococcus aureus, MRSA 147, read-out: Median MIC
  MIC: 64 µg/mL
STA 25923 MSSA; [4]
  MIC: 0.5 µg/mL
STA 25923 MSSA; single determinations
  MIC/Cefazolin: 0.5 µg/mL
MRSA 148; MRSA 148, single determinations
  MIC/Cefazolin: 256 µg/mL and 128 µg/mL
MRSA 148; Staphylococcus aureus, MRSA 148, read-out: Median MIC
  MIC: 256 µg/mL
MRSA 56 (494); [4]
  MIC: 128 µg/mL
MRSA 56 (494); single determinations
  MIC/Cefazolin: 64 µg/mL and 128 µg/mL
MRSA 151; MRSA 151, single determinations
  MIC/Cefazolin: 128 µg/mL
MRSA 151; Staphylococcus aureus, MRSA 151, read-out: Median MIC
  MIC: 128 µg/mL
MRSA 149; MRSA 149, single determinations
  MIC/Cefazolin: 128 µg/mL
MRSA 149; Staphylococcus aureus, MRSA 149, read-out: Median MIC
  MIC: 128 µg/mL
Mu 50 MRSA VISA; [4]
  MIC: 256 µg/mL
Mu 50 MRSA VISA; single determinations
  MIC/Cefazolin: 256 µg/mL
MRSA 142 ATCC 33591 MRSA; MRSA 142 ATCC 33591, single determinations
  MIC/Cefazolin: 256 µg/mL
MRSA 142 ATCC 33591 MRSA; Staphylococcus aureus, MRSA 142 ATCC 33591, read-out: Median MIC
  MIC: 256 µg/mL
STA 29213 MSSA; [4]
  MIC: 0.5 µg/mL
STA 29213 MSSA; MSSA strain
  MIC/Cefazolin: 1 µg/mL
STA 29213 MSSA; conventional S. aureus strain STA 29213
  MIC/Cefazolin: 0.5 µg/mL
[3]
  blood serum concentration: about 10 μg/ml
[3]; listed as antibiotic
  blood serum concentration: less than 10 μg/ml
[3]; human, in vivo
  tissue concentration relative to intravenous administration of Ohge et al.: about 50 times
[3]; human, in vivo, 1 gm
  Kp: < 10
